From patent publication US20120252741A1, “NOVEL SEMI-SYNTHETIC GLYCOPEPTIDES AS ANTIBACTERIAL AGENTS” (priority 2008, published 2012)
≈ marks a conversion by molar mass, not a printed value. Where two headings read alike, the source gives them in different places.

Assays:
Type in all cases: cell-based
[1] = test system: Staphylococcus epidermidis 835; test: MIC, broth microdilution, SE 835; conditions: Staphylococcus epidermidis, 835, class symbols, read-out: MIC SE 835
Procedure: (§1) Antibacterial activity in vitro is investigated by broth microdilution method in Meuller-Hinton broth as recommended by NCCLS. All strains tested are clinical isolates either sensitive or resistant to natural glycopeptides. MIC values were determined using the CLSI-recommended broth microdilution procedure (Clinical and Laboratory Standards Institute, Methods for Dilution Antimicrobial Susceptibility Tests for Bacteria That Grow Aerobically; Approved Standard-Seventh Edition.). Automated liquid handlers (Multidrop 384, Labsystems, Helsinki, Finland; Biomek 2000 and Multimek 96, Beckman Coulter, Fullerton Calif.) were used to conduct serial dilutions and liquid transfers. The MIC value for vancomycin is given for comparison. The abbreviations for organisms tested are as follow: SA 100—Staphylococcus aureus 100 (ATCC 29213); SA 757—Staphylococcus aureus 757 (MRSA); SA 2012—Staphylococcus aureus 2012 (VISA); SE 835—Staphylococcus epidermidis 835; SE 831—Staphylococcus epidermidis 831 (MRSE); EFc 101—Enterococcus faecalis 101 (ATCC 29212); EFc 848—Enterococcus faecalis 848 (VRE, Van A); EFcm 800—Enterococcus faecium 800; EFcm 752—Enterococcus faecium 752 (VRE, Van A); SPNE 1195—Streptococcus pneumoniae 1195 (ATCC 49619); SPY 712—Streptococcus pyogenes 712.

[2] = test system: Enterococcus faecium 752 (VRE, Van A); test: MIC, broth microdilution, EFcm 752; conditions: VRE, Van A, class symbols, read-out: MIC E FCM 752
Procedure: as §1

[3] = test system: Staphylococcus epidermidis 831 (MRSE); test: MIC, broth microdilution, SE 831; conditions: Staphylococcus epidermidis, read-out: MIC SE 831
Procedure: as §1

[4] = test system: Staphylococcus aureus 100 (ATCC 29213); test: MIC, broth microdilution, SA 100; conditions: Staphylococcus aureus, ATCC29213, class symbols, read-out: MIC SA 100
Procedure: as §1

[5] = test system: Streptococcus pneumoniae 1195 (ATCC 49619); test: MIC, broth microdilution, SPNE 1195; conditions: Streptococcus pneumoniae, ATCC49619, class symbols, read-out: MIC S PNE 1195
Procedure: as §1

[6] = test system: Staphylococcus aureus 757 (MRSA); test: MIC, broth microdilution, SA 757; conditions: read-out: MIC SA 757
Procedure: as §1

[7] = test system: Enterococcus faecalis 101 (ATCC 29212); test: MIC, broth microdilution, EFc 101; conditions: Enterococcus faecalis, ATCC29212, class symbols, read-out: MIC E FC 101
Procedure: as §1

[8] = test system: Enterococcus faecalis 848 (VRE, Van A); test: MIC, broth microdilution, EFc 848; conditions: VRE, Van A, class symbols, read-out: MIC E FC 848
Procedure: as §1

[9] = test system: Streptococcus pyogenes 712; test: MIC, broth microdilution, SPY 712; conditions: Streptococcus pyogenes, 712, class symbols, read-out: MIC S PYO 712
Procedure: as §1

[10] = test system: Enterococcus faecium 800; test: MIC, broth microdilution, EFcm 800; conditions: Enterococcus faecium, 800, class symbols, read-out: MIC E FCM 800
Procedure: as §1

[11] = test system: Staphylococcus aureus 2012 (VISA); test: MIC, broth microdilution, SA 2012; conditions: read-out: MIC SA 2012
Procedure: as §1

[12] = Table 2, in the presence of 0.002% Polysorbate 80
[13] = Table 2, in the presence of 0.002% Polysorbate 80, class symbols

| MIC [1, 12] [µg/mL] | MIC [2, 12] [µg/mL] | MIC [3, 13] [µg/mL] | MIC [4, 12] [µg/mL] | MIC [5, 12] [µg/mL] | MIC [6, 13] [µg/mL] | MIC [7, 12] [µg/mL] | MIC [8, 12] [µg/mL] | MIC [9, 12] [µg/mL] | MIC [10, 12] [µg/mL] | MIC [11, 13] [µg/mL] | SMILES | other results |
| --- | --- | --- | --- | --- | --- | --- | --- | --- | --- | --- | --- | --- |
| 0.01 to 0.5 | 0.5 to 1 | 0.01 to 0.5 | 0.01 to 0.5 | 0.01 to 0.5 | 0.01 to 0.5 | 0.01 to 0.5 | 4 to 8 | 0.01 to 0.5 | 0.01 to 0.5 | 2 to 4 | CN[C@H](CC(C)C)C(=O)N[C@H]1C(=O)N[C@@H](CC(=O)NC(=O)c2ccc(OC)cc2)C(=O)N[C@H]2C(=O)N[C@H]3C(=O)N[C@H](C(=O)N[C@H](C(=O)NC4C5CC6CC(C5)CC4C6)c4cc(O)cc(O)c4-c4cc3ccc4O)[C@H](O)c3ccc(c(Cl)c3)Oc3cc2cc(c3O[C@@H]2O[C@H](CO)[C@@H](O)[C@H](O)[C@H]2O[C@H]2C[C@](C)(N)[C@H](O)[C@H](C)O2)Oc2ccc(cc2Cl)[C@H]1O (some centres unmarked) [Compound 62] |  |
| 0.5 to 1 | 1 to 2 | 0.01 to 0.5 | 0.5 to 1 | 0.01 to 0.5 | 0.01 to 0.5 | 0.01 to 0.5 | 4 to 8 | 0.01 to 0.5 | 0.01 to 0.5 | 2 to 4 | CN[C@H](CC(C)C)C(=O)N[C@H]1C(=O)N[C@@H](CC(=O)NC(=O)c2ccc(OCCOC)cc2)C(=O)N[C@H]2C(=O)N[C@H]3C(=O)N[C@H](C(=O)N[C@H](C(=O)NC4C5CC6CC(C5)CC4C6)c4cc(O)cc(O)c4-c4cc3ccc4O)[C@H](O)c3ccc(c(Cl)c3)Oc3cc2cc(c3O[C@@H]2O[C@H](CO)[C@@H](O)[C@H](O)[C@H]2O[C@H]2C[C@](C)(N)[C@H](O)[C@H](C)O2)Oc2ccc(cc2Cl)[C@H]1O (some centres unmarked) [Compound 65] |  |
|  |  |  |  |  |  |  |  |  |  |  | CCCCOc1ccc(S(=O)(=O)NC(=O)C[C@@H]2NC(=O)[C@H](NC(=O)[C@@H](CC(C)C)NC)[C@H](O)c3ccc(c(Cl)c3)Oc3cc4cc(c3O[C@@H]3O[C@H](CN)[C@@H](O)[C@H](O)[C@H]3O)Oc3ccc(cc3Cl)[C@@H](O)[C@@H]3NC(=O)[C@H](NC(=O)[C@@H]4NC2=O)c2ccc(O)c(c2)-c2c(O)cc(O)cc2[C@@H](C(=O)NC2C4CC5CC(C4)CC2C5)NC3=O)cc1 (some centres unmarked) [Compound 99] | MIC ([1]; Table 1): 0.01 to 0.5 µg/mL (≈ 0.00606 to 0.303 µM); MIC ([2]; Table 1): 0.01 to 0.5 µg/mL (≈ 0.00606 to 0.303 µM); MIC ([3]; Table 1, class symbols): 0.01 to 0.5 µg/mL (≈ 0.00606 to 0.303 µM); MIC ([4]; Table 1): 0.01 to 0.5 µg/mL (≈ 0.00606 to 0.303 µM); MIC ([5]; Table 1): 0.5 to 1 µg/mL (≈ 0.303 to 0.606 µM); MIC ([6]; Table 1, class symbols): 0.01 to 0.5 µg/mL (≈ 0.00606 to 0.303 µM); MIC ([7]; Table 1): 0.01 to 0.5 µg/mL (≈ 0.00606 to 0.303 µM); MIC ([8]; Table 1): 0.5 to 1 µg/mL (≈ 0.303 to 0.606 µM); MIC ([9]; Table 1): 0.01 to 0.5 µg/mL (≈ 0.00606 to 0.303 µM); MIC ([10]; Table 1): 0.01 to 0.5 µg/mL (≈ 0.00606 to 0.303 µM); MIC ([11]; Table 1, class symbols): 0.5 to 1 µg/mL (≈ 0.303 to 0.606 µM) |

| SMILES | MIC [1, 12] [µg/mL] | MIC [2, 12] [µg/mL] | MIC [3, 13] [µg/mL] | MIC [4, 12] [µg/mL] | MIC [5, 12] [µg/mL] | MIC [6, 13] [µg/mL] | MIC [7, 12] [µg/mL] | MIC [8, 12] [µg/mL] | MIC [9, 12] [µg/mL] | MIC [10, 12] [µg/mL] | MIC [11, 13] [µg/mL] | other results |
| --- | --- | --- | --- | --- | --- | --- | --- | --- | --- | --- | --- | --- |
| CCOc1ccc(C(=O)NC(=O)C[C@@H]2NC(=O)[C@H](NC(=O)[C@@H](CC(C)C)NC)[C@H](O)c3ccc(c(Cl)c3)Oc3cc4cc(c3O[C@@H]3O[C@H](CO)[C@@H](O)[C@H](O)[C@H]3O[C@H]3C[C@](C)(N)[C@H](O)[C@H](C)O3)Oc3ccc(cc3Cl)[C@@H](O)[C@@H]3NC(=O)[C@H](NC(=O)[C@@H]4NC2=O)c2ccc(O)c(c2)-c2c(O)cc(O)cc2[C@@H](C(=O)NC2C4CC5CC(C4)CC2C5)NC3=O)cc1 (some centres unmarked) [Compound 63] | 0.01 to 0.5 | 1 to 2 | 0.01 to 0.5 | 0.01 to 0.5 | 0.01 to 0.5 | 0.01 to 0.5 | 0.01 to 0.5 | 4 to 8 | 0.01 to 0.5 | 0.01 to 0.5 | 2 to 4 |  |
